Data published in US8344027B2, “4-dimethylaminobutyric acid derivatives” (Hoffmann-La Roche Inc., priority 2008, dated 2013).

Legend:
hCPT2 = target: T1, hCPT2 (Homo sapiens, UniProt P23786); assay: CPT2 inhibition, spectrophotometric DTNB (Ellman's reagent) assay; assay type: biochemical; details: human CPT2 expressed in P. pastoris, cell extract; carnitine 500 μM, palmitoyl-CoA 80 μM, DTNB 300 μM
T1 construct: made in house; host or cells: Pichia pastoris strain X-33
T1 sequence (P23786 26-658): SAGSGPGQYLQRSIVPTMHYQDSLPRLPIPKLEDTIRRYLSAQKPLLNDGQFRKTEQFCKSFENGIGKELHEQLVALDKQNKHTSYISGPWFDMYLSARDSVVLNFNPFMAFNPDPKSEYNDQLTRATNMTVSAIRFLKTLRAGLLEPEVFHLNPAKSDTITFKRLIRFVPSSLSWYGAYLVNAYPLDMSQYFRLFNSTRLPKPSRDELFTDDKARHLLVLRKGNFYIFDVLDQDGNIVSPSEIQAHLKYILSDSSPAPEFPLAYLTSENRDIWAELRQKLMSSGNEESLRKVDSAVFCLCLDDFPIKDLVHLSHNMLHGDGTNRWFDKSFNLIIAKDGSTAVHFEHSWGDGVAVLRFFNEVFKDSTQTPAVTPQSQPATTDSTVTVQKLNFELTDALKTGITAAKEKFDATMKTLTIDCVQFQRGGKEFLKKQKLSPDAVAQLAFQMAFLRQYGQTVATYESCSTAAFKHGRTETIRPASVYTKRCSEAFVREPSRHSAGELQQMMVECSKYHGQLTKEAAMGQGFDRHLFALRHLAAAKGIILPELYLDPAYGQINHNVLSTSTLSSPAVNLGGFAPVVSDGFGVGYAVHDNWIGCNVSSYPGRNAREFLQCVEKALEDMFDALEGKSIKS
Experimental: (§1) The following tests were carried out in order to determine the activity of the compounds of the present invention. Background information on the performed assays can be found in: Jackson et al., 1999, Biochem. J. 341, 483-489 and Jackson et al., 2000, J. Biol. Chem. 275, 19560-19566.
(§2) Human and rat CPT2- and liver CPT1 cDNAs, and human muscle CPT1 cDNA were subcloned in pGAPZB or pGAPZA, respectively. These plasmids were used to transform P. pastoris strain X-33 via electroporation after the preparation of electrocompetent cells. High copy number clones were selected where necessary using 0.5 or 1 mg/ml Zeocin. Cultures for activity measurements were induced for 16 h in YPD medium (1% yeast extract, 2% peptone, 2% glucose). Crude cell extracts were prepared by disrupting the cells with glass beads or French Press, depending on fermenter sizes. After centrifugation, the cell-free extracts were resuspended in cell breaking buffer (50 mM Tris, pH7.4, 100 mM KCl, 1 mM EDTA) in the presence of a protease inhibitor cocktail, before aliquoting and freezing at −20° C.
(§3) CPT activity was measured using a spectrophotometric assay using 5,5′-dithio-bis-(2-nitrobenzoic acid) (DTNB) also called Ellman's reagent. The HS-CoA released on the formation of acylcarnitine from carnitine (500 μM) and palmitoyl-CoA (80 μM) reduced DTNB (300 μM) forming 5-mercapto-2-nitrobenzoic acid which absorbed at 410 nm with a molar extinction coefficient of 13600 M^−1cm^−1. The assay buffer contained 120 mM KCl, 25 mM Tris, pH 7.4, 1 mM EDTA. This assay was used for the identification of CPT inhibitors, particularly/preferentially CPT2-selective inhibitors, versus the liver and muscle CPT1 isoforms.

hL-CPT1 = target: T2, hL-CPT1 (Homo sapiens, UniProt P50416); assay: liver CPT1 inhibition, spectrophotometric DTNB (Ellman's reagent) assay; assay type: biochemical; details: human liver CPT1 expressed in P. pastoris, cell extract; carnitine 500 μM, palmitoyl-CoA 80 μM, DTNB 300 μM
T2 construct: made in house; host or cells: Pichia pastoris strain X-33
T2 sequence (P50416 1-773): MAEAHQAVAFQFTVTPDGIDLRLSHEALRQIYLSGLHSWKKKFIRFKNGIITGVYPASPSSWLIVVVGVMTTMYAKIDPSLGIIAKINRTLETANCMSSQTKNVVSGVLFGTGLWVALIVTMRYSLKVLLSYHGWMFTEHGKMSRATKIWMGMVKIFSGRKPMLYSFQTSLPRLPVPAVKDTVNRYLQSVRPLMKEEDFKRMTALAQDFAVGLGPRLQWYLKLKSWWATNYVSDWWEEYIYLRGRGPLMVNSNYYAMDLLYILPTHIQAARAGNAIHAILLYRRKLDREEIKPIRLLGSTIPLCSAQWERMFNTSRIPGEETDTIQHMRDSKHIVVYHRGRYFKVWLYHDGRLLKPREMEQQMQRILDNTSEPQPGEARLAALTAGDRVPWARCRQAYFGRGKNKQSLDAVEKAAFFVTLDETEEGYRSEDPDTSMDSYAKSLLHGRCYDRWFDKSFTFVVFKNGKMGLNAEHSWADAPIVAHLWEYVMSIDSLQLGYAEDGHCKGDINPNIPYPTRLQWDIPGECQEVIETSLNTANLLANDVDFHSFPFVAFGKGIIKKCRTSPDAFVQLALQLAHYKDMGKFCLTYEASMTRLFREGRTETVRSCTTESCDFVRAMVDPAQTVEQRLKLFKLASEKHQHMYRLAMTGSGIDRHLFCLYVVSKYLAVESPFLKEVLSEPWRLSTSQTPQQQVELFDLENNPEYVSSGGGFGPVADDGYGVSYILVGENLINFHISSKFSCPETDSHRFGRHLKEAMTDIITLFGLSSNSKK
Experimental: as §1, §2, §3

Row | Structure (SMILES) | IC50 (hCPT2) [nM] | IC50 (hL-CPT1) [nM]
1 | CN(C)C[C@@H](CC(=O)O)NC(=O)CCCCCCCOCc1ccc(C(F)(F)F)cc1F [Example 10, (R)-4-Dimethylamino-3-[8-(2-fluoro-4-trifluoromethyl-benzyloxy)-octanoylamino]-butyric acid] | 694 | > 10000
2 | CN(C)C[C@@H](CC(=O)O)NC(=O)CCCCCCCCOc1ccc(-c2ccccc2)cc1 [Example 25, (R)-3-[9-(Biphenyl-4-yloxy)-nonanoylamino]-4-dimethylamino-butyric acid] | 19 | 1470
3 | CN(C)C[C@@H](CC(=O)O)NC(=O)CCCCCCCOCc1ccc(-c2ccccc2)cc1 [Example 9, (R)-3-[8-(Biphenyl-4-ylmethoxy)-octanoylamino]-4-dimethylamino-butyric acid] | 2 | 5790
4 | CN(C)C[C@@H](CC(=O)O)NC(=O)CCCCCCCOCc1cc(F)ccc1F [Example 2, (R)-3-[8-(2,5-Difluoro-benzyloxy)-octanoylamino]-4-dimethylamino-butyric acid] | 3490 | > 10000
5 | CN(C)C[C@@H](CC(=O)O)NC(=O)CCCCCCCCOc1ccc(F)cc1F [Example 22, (R)-3-[9-(2,4-Difluoro-phenoxy)-nonanoylamino]-4-dimethylamino-butyric acid] | 268 | 8630
6 | CN(C)C[C@@H](CC(=O)O)NC(=O)CCCCCCCCOc1ccc(C(F)(F)F)cc1 [Example 27, (R)-4-Dimethylamino-3-[9-(4-trifluoromethyl-phenoxy)-nonanoylamino]-butyric acid] | 170 | 2190
7 | CN(C)C[C@@H](CC(=O)O)NC(=O)CCCCCCCOCc1ccc(C(F)(F)F)c(F)c1 [Example 7, (R)-4-Dimethylamino-3-[8-(3-fluoro-4-trifluoromethyl-benzyloxy)-octanoylamino]-butyric acid] | 591 | 5990
8 | CN(C)C[C@@H](CC(=O)O)NC(=O)CCCCCCCOCc1cccc2ccccc12 [Example 12, (R)-4-Dimethylamino-3-[8-(naphthalen-1-ylmethoxy)-octanoylamino]-butyric acid] | 300 | > 10000
9 | CN(C)C[C@@H](CC(=O)O)NC(=O)CCCCCCCOCc1ccccc1 [Example 17, (R)-3-(8-Benzyloxy-octanoylamino)-4-dimethylamino-butyric acid] | 1560 | > 10000
10 | CN(C)C[C@@H](CC(=O)O)NC(=O)CCCCCCCOCc1ccc(F)cc1 [Example 15, (R)-4-Dimethylamino-3-[8-(4-fluoro-benzyloxy)-octanoylamino]-butyric acid] | 2060 | 6550
11 | CN(C)C[C@@H](CC(=O)O)NC(=O)CCCCCCCCOc1ccc(F)c(F)c1 [Example 23, (R)-3-[9-(3,4-Difluoro-phenoxy)-nonanoylamino]-4-dimethylamino-butyric acid] | 71 | 1660
12 | CN(C)C[C@@H](CC(=O)O)NC(=O)CCCCCCCOCc1ccccc1F [Example 13, (R)-4-Dimethylamino-3-[8-(2-fluoro-benzyloxy)-octanoylamino]-butyric acid] | 2630 | > 10000

Further lines, results first:

Row | IC50 (hCPT2) [nM] | IC50 (hL-CPT1) [nM] | Structure (SMILES)
13 | 122 | 4320 | CN(C)C[C@@H](CC(=O)O)NC(=O)CCCCCCCCCc1ccc(F)cc1 [Example 34, (R)-4-Dimethylamino-3-[10-(4-fluoro-phenyl)-decanoylamino]-butyric acid]
14 | 143 | 7020 | CN(C)C[C@@H](CC(=O)O)NC(=O)CCCCCCCCCc1ccccc1 [Example 32, (R)-4-Dimethylamino-3-(10-phenyl-decanoylamino)-butyric acid]
15 | 17 | 6910 | COc1ccc(CCCCCCCCCC(=O)N[C@H](CC(=O)O)CN(C)C)cc1 [Example 38, (R)-4-Dimethylamino-3-[10-(4-methoxy-phenyl)-decanoylamino]-butyric acid]
16 | 46 | 3590 | CN(C)C[C@@H](CC(=O)O)NC(=O)CCCCCCCCCc1ccccc1F [Example 35, (R)-4-Dimethylamino-3-[10-(2-fluoro-phenyl)-decanoylamino]-butyric acid]
17 | 58 | 2410 | CN(C)C[C@@H](CC(=O)O)NC(=O)CCCCCCCCOc1ccccc1 [Example 31, (R)-4-Dimethylamino-3-(9-phenoxy-nonanoylamino)-butyric acid]
18 | 1060 | > 10000 | CN(C)C[C@@H](CC(=O)O)NC(=O)CCCCCCCCCc1cncs1 [Example 44, (R)-4-Dimethylamino-3-(10-thiazol-5-yl-decanoylamino)-butyric acid]
19 | 948 | > 10000 | CN(C)C[C@H](CC(=O)O)NC(=O)CCCCCCCCCc1ccccc1 [Example 33, (S)-4-Dimethylamino-3-(10-phenyl-decanoylamino)-butyric acid]
20 | 2100 | > 10000 | CN(C)C[C@@H](CC(=O)O)NC(=O)CCCCCCCCCCc1ccccc1 [Example 50, (R)-4-Dimethylamino-3-(11-phenyl-undecanoylamino)-butyric acid]
